In brackets after ≈: the same amount, converted by molar mass.
Key:
Assay in all cases: Broth microdilution MIC in iron-depleted CAMHB (IDM)
Type in all cases: cell-based
[1] = test system: A. baumannii CDC-0045 producing TEM-1D, OXA-23, and OXA-69; conditions: Acinetobacter baumannii, read-out: Minimum Inhibitory Concentration, CDC-0045
[2] = test system: P. aeruginosa CDC-0110; conditions: Pseudomonas aeruginosa, CDC0110, read-out: Minimum Inhibitory Concentration, P. aeruginosa CDC-0110
Protocol: (§1) To determine the ability of test compounds to inhibit the growth bacterial strains under conditions of iron-depletion, classic cell based broth microdilution minimum inhibitory concentration (MIC) assays were employed. MIC assays are performed according to CLSI methods except where otherwise noted (CLSI, 2018 and CLSI, 2019). The reference type strain E. coli ATCC 25922 was used to determine the ability of the PBP inhibitors to inhibit the growth of Enterobacteriaceae. Wild-type P. aeruginosa ATCC 27853, A. baumannii ATCC 17978 and A. baumannii ATCC 19606, along with the hyper-permeable P. aeruginosa ATCC 35151, an engineered efflux pump-compromised strain of P. aeruginosa (ΔmexAB-oprM), and an engineered efflux-pump compromised strain of A. baumannii IL123 (ABΔ3-ARAEcPore) were used to determine the ability of PBP inhibitors to penetrate the outer membrane of P. aeruginosa and A. baumannii and assess antibacterial activity against these important gram-negative organisms.
(§2) Briefly, cryo-preserved bacterial cultures of challenge strains are streaked for isolation on appropriate agar medium, in this case cation-adjusted Mueller Hinton agar. Following incubation to allow growth of the colonies, plates are sealed with parafilm and stored refrigerated for up to two weeks. For preparation of assay inoculum and to ensure low variability, at least 5 colonies are picked from the agar plates with an inoculating loop and aseptically transferred to a culture tube containing 3 mL of iron-depleted cation-adjusted Mueller Hinton broth (IDM)—see below for IDM preparation. The broth culture is grown for 3-5 hours at 37° C. with shaking at 200 rpm. Meanwhile, 2-fold serial dilutions of test compounds are conducted in a 96-well plate with a final volume of 75 μL per well at 2-fold the final desired concentration. After the dilution plates are set up the growing cultures are then diluted in a cuvette containing IDM and the optical density is measured at 600 nm. The inoculum is diluted such that 75 μL of this culture in IDM results in a starting bacterial concentration of 2-8×10^5 CFU/mL when added to the dilution plates. The plates are incubated for 16-20 hours for Enterobacteriaceae and Pseudomonas and 20-24 hours for Acinetobacter at 37° C. The MIC values are read visually as the lowest concentration well with no bacterial growth.
(§3) Method for Iron-Depleted Cation-Adjusted Mueller Hinton Broth (IDM) Preparation:
(§4) • Prepare cation-adjusted Mueller Hinton broth as per the manufacturer's recommendations and autoclave. • Add 100 g/L Chelex 100 resin, cover with foil and incubate with stirring for 2 hours • Remove Chelex 100 resin by filtration with 0.45 μm filter flask • Add the following back to the medium: • CaCl2 dihydrate: 82.5 mg/L • MgCl2 hexahydrate: 94.1 mg/L • ZnSO4: 10 μM • Adjust pH of medium to 7.3 with 5 N HCl • Sterilize using a 0.22 µm filter flask

[3] = test system: A. baumannii ATCC 19606; conditions: Acinetobacter baumannii, ATCC19606, read-out: Minimum Inhibitory Concentration, ATCC 19606
Protocol: (§5) Example IV: In Vitro Antibacterial Assays in Iron-Depleted Cation-Adjusted Mueller-Hinton Broth
as §1, §2, §3, §4

[4] = test system: A. baumannii ATCC 17978; conditions: Acinetobacter baumannii, ATCC17978, read-out: Minimum Inhibitory Concentration, ATCC 17978
Protocol: as §5, §1, §2, §3, §4

[5] = test system: P. aeruginosa CDC-0090 producing KPC-5, OXA-50, and PAO; conditions: Pseudomonas aeruginosa, read-out: Minimum Inhibitory Concentration, P. aeruginosa CDC-0090
Protocol: as §5, §1, §2, §3, §4

[6] = test system: A. baumannii CDC-0036 OXA-65, and OXA-24; conditions: Acinetobacter baumannii, read-out: Minimum Inhibitory Concentration, CDC-0036
Protocol: as §5, §1, §2, §3, §4

[7] = test system: P. aeruginosa (ΔmexAB-oprM); conditions: Pseudomonas aeruginosa, read-out: Minimum Inhibitory Concentration, P. aeruginosa ΔmexAB-OprM
Protocol: as §5, §1, §2, §3, §4

[8] = test system: P. aeruginosa ATCC 27853; conditions: Pseudomonas aeruginosa, ATCC27853, read-out: Minimum Inhibitory Concentration, P. aeruginosa ATCC 27853
Protocol: as §5, §1, §2, §3, §4

[9] = test system: A. baumannii CDC-0033 producing NDM-1, and OXA-94; conditions: Acinetobacter baumannii, read-out: Minimum Inhibitory Concentration, CDC-0033
Protocol: as §5, §1, §2, §3, §4

[10] = test system: A. baumannii CDC-0083 producing NDM-1, PER-7, OXA-23, and OXA-69; conditions: Acinetobacter baumannii, read-out: Minimum Inhibitory Concentration, CDC-0083
Protocol: as §5, §1, §2, §3, §4

[11] = test system: P. aeruginosa CDC-0054 producing VIM-4, OXA-50, and PAO; conditions: Pseudomonas aeruginosa, read-out: Minimum Inhibitory Concentration, P. aeruginosa CDC-0054
Protocol: as §5, §1, §2, §3, §4

[12] = test system: P. aeruginosa CDC-0095 producing OXA-50, and PAO; conditions: Pseudomonas aeruginosa, read-out: Minimum Inhibitory Concentration, P. aeruginosa CDC-0095
Protocol: as §5, §1, §2, §3, §4

[13] = test system: P. aeruginosa ATCC 35151; conditions: Pseudomonas aeruginosa, ATCC35151; iron-depleted MHB (IDM); hyper-permeable strain; read-out: Minimum Inhibitory Concentration, P. aeruginosa ATCC 35151
Protocol: as §5, §1, §2, §3, §4

SMILES | MIC [1] | MIC [2] | MIC [3] | MIC [4] | MIC [5] | MIC [6] | MIC [7] | MIC [8] | MIC [9] | MIC [10] | MIC [11] | MIC [12] | MIC [13]
NCCN1CCN(C(=O)N[C@@H](C(=O)N[C@H]2Cc3ccc(F)c(C(=O)O)c3OB2O)c2c(F)cc(O)c(O)c2Cl)C(=O)C1=O (single isomer, unassigned) [Example 26] | 0.5 to 1 µg/mL (≈ 0.799 to 1.6 µM) | 0.5 to 1 µg/mL (≈ 0.799 to 1.6 µM) | 0.5 to 1 µg/mL (≈ 0.799 to 1.6 µM) | 0.25 µg/mL (≈ 0.4 µM) | 0.25 µg/mL (≈ 0.4 µM) | 8 to 16 µg/mL (≈ 12.8 to 25.6 µM) | 0.25 µg/mL (≈ 0.4 µM) | 0.5 to 1 µg/mL (≈ 0.799 to 1.6 µM) | 2 to 4 µg/mL (≈ 3.2 to 6.39 µM) | 0.25 µg/mL (≈ 0.4 µM) | 0.5 to 1 µg/mL (≈ 0.799 to 1.6 µM) | 32 to 64 µg/mL (≈ 51.1 to 102 µM) | 0.25 µg/mL (≈ 0.4 µM)
NCCCN1CCN(C(=O)N[C@@H](C(=O)N[C@H]2Cc3ccc(F)c(C(=O)O)c3OB2O)c2c(F)cc(O)c(O)c2Cl)C(=O)C1=O (single isomer, unassigned) [Example 27] | 0.5 to 1 µg/mL (≈ 0.782 to 1.56 µM) | 2 to 4 µg/mL (≈ 3.13 to 6.25 µM) | 0.25 µg/mL (≈ 0.391 µM) | 0.25 µg/mL (≈ 0.391 µM) | 0.25 µg/mL (≈ 0.391 µM) | 2 to 4 µg/mL (≈ 3.13 to 6.25 µM) | 0.25 µg/mL (≈ 0.391 µM) | 0.5 to 1 µg/mL (≈ 0.782 to 1.56 µM) | 0.5 to 1 µg/mL (≈ 0.782 to 1.56 µM) | 0.25 µg/mL (≈ 0.391 µM) | 0.25 µg/mL (≈ 0.391 µM) | 8 to 16 µg/mL (≈ 12.5 to 25 µM) | 0.25 µg/mL (≈ 0.391 µM)
O=C(O)c1ccc(C(NC(=O)N2CCN(CCNC(=O)c3ccc(O)c(O)c3Cl)C(=O)C2=O)C(=O)N[C@H]2Cc3ccc(F)c(C(=O)O)c3OB2O)cc1F (stereo partly drawn) [Example 11, (3R)-3-(2-(4-carboxy-3-fluorophenyl)-2-(4-(2-(2-chloro-3,4-dihydroxybenzamido)ethyl)-2,3-dioxopiperazine-1-carboxamido)acetamido)-7-fluoro-2-hydroxy-3,4-dihydro-2H-benzo[e][1,2]oxaborinine-8-carboxylic acid] |  |  | > 128 µg/mL |  |  |  | 0.5 to 1 µg/mL (≈ 0.646 to 1.29 µM) | 2 to 4 µg/mL (≈ 2.58 to 5.17 µM) |  |  |  |  | 0.25 µg/mL (≈ 0.323 µM)
CS(=O)(=O)N1CCN(C(=O)NC(C(=O)N[C@H]2Cc3ccc(F)c(C(=O)O)c3OB2O)c2ccc(O)c(O)c2Cl)C1=O (stereo partly drawn) [Example 23, (3R)-3-(2-(2-chloro-3,4-dihydroxyphenyl)-2-(3-(methylsulfonyl)-2-oxoimidazolidine-1-carboxamido)acetamido)-7-fluoro-2-hydroxy-3,4-dihydro-2H-benzo[e][1,2]oxaborinine-8-carboxylic acid] | 0.5 to 1 µg/mL (≈ 0.813 to 1.63 µM) | 2 to 4 µg/mL (≈ 3.25 to 6.51 µM) | 0.25 µg/mL (≈ 0.407 µM) | 0.25 µg/mL (≈ 0.407 µM) | 0.5 to 1 µg/mL (≈ 0.813 to 1.63 µM) | 8 to 16 µg/mL (≈ 13 to 26 µM) | 0.25 µg/mL (≈ 0.407 µM) | 0.5 to 1 µg/mL (≈ 0.813 to 1.63 µM) | 8 to 16 µg/mL (≈ 13 to 26 µM) | 0.5 to 1 µg/mL (≈ 0.813 to 1.63 µM) | 0.5 to 1 µg/mL (≈ 0.813 to 1.63 µM) | 8 to 16 µg/mL (≈ 13 to 26 µM) | 0.25 µg/mL (≈ 0.407 µM)
NC(C(=O)N[C@H]1Cc2ccc(F)c(C(=O)O)c2OB1O)c1c(F)cc(O)c(O)c1Cl (stereo partly drawn) [Example 25, (3R)-3-(2-amino-2-(2-chloro-6-fluoro-3,4-dihydroxyphenyl)acetamido)-7-fluoro-2-hydroxy-3,4-dihydro-2H-benzo[e][1,2]oxaborinine-8-carboxylic acid] | 32 to 64 µg/mL (≈ 72.3 to 145 µM) | 32 to 64 µg/mL (≈ 72.3 to 145 µM) | 32 to 64 µg/mL (≈ 72.3 to 145 µM) | 32 to 64 µg/mL (≈ 72.3 to 145 µM) | 32 to 64 µg/mL (≈ 72.3 to 145 µM) | 32 to 64 µg/mL (≈ 72.3 to 145 µM) | 32 to 64 µg/mL (≈ 72.3 to 145 µM) | 32 to 64 µg/mL (≈ 72.3 to 145 µM) | 32 to 64 µg/mL (≈ 72.3 to 145 µM) | 32 to 64 µg/mL (≈ 72.3 to 145 µM) | 32 to 64 µg/mL (≈ 72.3 to 145 µM) | 32 to 64 µg/mL (≈ 72.3 to 145 µM) | 8 to 16 µg/mL (≈ 18.1 to 36.2 µM)
O=C(O)c1ccc(C(NC(=O)c2c(F)cc(O)c(O)c2Cl)C(=O)N[C@H]2Cc3ccc(F)c(C(=O)O)c3OB2O)cc1F (stereo partly drawn) [Example 71, (3R)-3-(2-(4-carboxy-3-fluorophenyl)-2-(2-chloro-6-fluoro-3,4-dihydroxybenzamido)acetamido)-7-fluoro-2-hydroxy-3,4-dihydro-2H-benzo[e][1,2]oxaborinine-8-carboxylic acid] | 32 to 64 µg/mL (≈ 52.6 to 105 µM) | 0.25 µg/mL (≈ 0.411 µM) | 32 to 64 µg/mL (≈ 52.6 to 105 µM) | 32 to 64 µg/mL (≈ 52.6 to 105 µM) | 2 to 4 µg/mL (≈ 3.29 to 6.57 µM) | 32 to 64 µg/mL (≈ 52.6 to 105 µM) | 0.25 µg/mL (≈ 0.411 µM) | 0.5 to 1 µg/mL (≈ 0.821 to 1.64 µM) | 32 to 64 µg/mL (≈ 52.6 to 105 µM) | 32 to 64 µg/mL (≈ 52.6 to 105 µM) | 0.5 to 1 µg/mL (≈ 0.821 to 1.64 µM) | 0.5 to 1 µg/mL (≈ 0.821 to 1.64 µM) | 0.25 µg/mL (≈ 0.411 µM)
CCN1CCN(C(=O)NC(C(=O)N[C@H]2Cc3cccc(C(=O)O)c3OB2O)c2cccc(NC(=O)c3ccc(O)c(O)c3Cl)c2)C(=O)C1=O (stereo partly drawn) [Example 73, (3R)-3-(2-(3-(2-chloro-3,4-dihydroxybenzamido)phenyl)-2-(4-ethyl-2,3-dioxopiperazine-1-carboxamido)acetamido)-2-hydroxy-3,4-dihydro-2H-benzo[e][1,2]oxaborinine-8-carboxylic acid] | 32 to 64 µg/mL (≈ 46.1 to 92.2 µM) | 0.5 to 1 µg/mL (≈ 0.721 to 1.44 µM) | 2 to 4 µg/mL (≈ 2.88 to 5.76 µM) | 2 to 4 µg/mL (≈ 2.88 to 5.76 µM) | 2 to 4 µg/mL (≈ 2.88 to 5.76 µM) | 32 to 64 µg/mL (≈ 46.1 to 92.2 µM) | 0.25 µg/mL (≈ 0.36 µM) | 8 to 16 µg/mL (≈ 11.5 to 23.1 µM) | 32 to 64 µg/mL (≈ 46.1 to 92.2 µM) | 32 to 64 µg/mL (≈ 46.1 to 92.2 µM) | 2 to 4 µg/mL (≈ 2.88 to 5.76 µM) | 2 to 4 µg/mL (≈ 2.88 to 5.76 µM) | 0.25 µg/mL (≈ 0.36 µM)
